Results as given in patent US20230159516A1 (priority 2020, published 2023).

Tested on: SARS-CoV-2
Type: cell-based

SMILES: O=C(Oc1cncc(Cl)c1)c1cccc2c1CCN2 [CTRL-1720S]
- block of the cytopathic effect (CPE) of SARS-CoV-2: significantly block the cytopathic effect

SMILES: COc1cccc2[nH]c(C(=O)N[C@@H](CC(C)C)C(=O)N[C@@H](C[C@@H]3CCNC3=O)C(=O)c3nc4ccccc4s3)cc12 [GRL-2420S]
- block of the cytopathic effect (CPE) of SARS-CoV-2: significantly block the cytopathic effect
